Laboratory results: patent US20110105349A1, “USE OF A MONOPHOSPHATE ESTER OF A PHTHALEIN COMPOUND AS A SUBSTRATE FOR TARTRATE-RESISTANT ACID PHOSPHATASE B5 (TRAP 5B)” (MUNODIAGNOSTIC SYSTEMS LIMITED, priority 2008, published 2011)

Experiments:
[1] = test system: TRAP5b; settings: cited from earlier work
[2] = molecular target: T1, TRAP5a (Homo sapiens, UniProt P13686); assay: Activity with phthalein monophosphate esters at 0.47 mg/mL, pH 7.4 (Example 8); format: biochemical; design: unit not given beside the values; settings: 0.47 mg/mL in 100 mM MES pH7.4
T1 construct: Serum-derived TRAP5a and TRAP5b were separated by ion exchange chromatography; from tissue; host or cells: human serum
T1 sequence (P13686 22-325): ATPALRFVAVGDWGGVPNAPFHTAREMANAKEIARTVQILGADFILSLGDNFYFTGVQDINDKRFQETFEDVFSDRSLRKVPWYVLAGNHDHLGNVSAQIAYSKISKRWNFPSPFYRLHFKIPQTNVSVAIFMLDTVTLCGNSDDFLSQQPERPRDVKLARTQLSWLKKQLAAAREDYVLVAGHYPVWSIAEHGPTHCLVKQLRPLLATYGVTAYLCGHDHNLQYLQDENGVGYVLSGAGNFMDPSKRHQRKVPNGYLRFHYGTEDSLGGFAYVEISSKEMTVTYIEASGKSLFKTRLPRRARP
Protocol: (§1) To test for activity towards PTMP, 100 μL of a solution containing 6 mg/mL PTMP dissolved in 125 mM MOPS buffer, pH 7.0 was added per well and incubated for 0-40 min at 37° C. The reactions were stopped at the times indicated by the addition of 50 μL per well of 1M glycine/NaOH, pH11 and the absorbance at […] was measured. To test for activity towards TTMP, 100 μL of a solution containing 5 mg/mL TTMP dissolved in 80 mM MOPS buffer, 10% ethanol, pH 7.0 was added per well and incubated for 0-40 min at 37° C. The reactions were stopped at the times indicated by the addition of 50 μL per well of 0.25 M NaOH and the absorbance at […] was measured.
(§2) Where phthalein monophosphate esters were not available commercially, the monophosphate esters were prepared by the method of Bulbenko & Woodbridge (U.S. Pat. No. 4,045,290) by reaction of the appropriate phthalein compound (from Sigma-Aldrich) with phosphorus oxychloride (CAS 10025-87-3), followed by hydrolysis and purification. The monophosphate esters were further purified before use by HPLC chromatography to remove un-reacted phthalein dye. HPLC column 10 mm×150 mm ACE 5 C18 (Advance Chromatography Technologies, UK), load solvent composition, 30% methanol and 70% water containing 0.1% trifluoroacetic acid (TFA); product was eluted by a gradient from 30% methanol 0.1% TFA to 100% methanol 0.1% TFA at 3 mL/minute over 45 minutes.
(§3) Phthalein monophosphate esters prepared in Example 7 were diluted to 0.47 mg/mL in 100 mM MES pH7.4 buffer and applied to an assay as in Example 1.

[3] = test system: TRAP5b; assay: as above; format: biochemical, human; design: 5b Activity: unit not given here; settings: 0.47 mg/mL in 100 mM MES pH7.4
Protocol: as §1, §2, §3

5a Activity [2] | SMILES | relative activity for TRAP 5b over TRAP 5a compared with WO1999/050662 ([1]; EP 1598670) | pH optimum of TRAP5b ([1]; WO1999/050662 (pNPP), EP1598670 (2-chloro-4-nitrophenylphosphate)) | 5b Activity [3] | Ratio of 5b:5a activity [3]
 | O=[N+]([O-])c1ccc(OP(=O)(O)O)c(Cl)c1 [2-chloro-4-nitrophenylphosphate] | 0.8 × | 6.4 pH |  | 
0.0036 | Cc1c(C2(c3cc(Br)c(OP(=O)(O)O)c(Br)c3C)OS(=O)(=O)c3ccccc32)cc(Br)c(O)c1Br (centres unmarked) [Bromocresol Green, Bromocresol Green monophosphate] |  |  | 0.2636 | 73.2
0.0074 | Cc1cc(C2(c3cc(C)c(OP(=O)(O)O)c(Br)c3)OS(=O)(=O)c3ccccc32)cc(Br)c1O (centres unmarked) [Bromocresol Purple, Bromocresol Purple monophosphate] |  |  | 0.4755 | 64.3
0.0067 | O=P(O)(O)Oc1ccc(C2(c3ccc(O)c(Cl)c3)OS(=O)(=O)c3ccccc32)cc1Cl (centres unmarked) [Chlorophenol Red, Chlorophenol Red monophosphate] |  |  | 0.3558 | 53.1
